In series [1] the test system is Radical scavenging activity. The experiment in a line: Antioxidant activity assessed as DPPH radical scavenging activity after 30 mins. The class given is functional.
The nature of series [2]: Cytotoxicity against mouse RAW264.7 cells assessed as cell viability at 1 to 20 uM after 24 hrs by MTT assay relative to control. Format: cell-based. To be noted: read-out: Activity.
Series [3] relates to RAW264.7. Nature of the series: Antiinflammatory activity against mouse RAW264.7 cells assessed as Inhibition of LPS-induced nitric oxide production after 24 hrs by ELISA. Format: functional, cell-based. The note with it: RAW264.7, 24 h.

SMILES strings stand for the structures.

For the compound `O=C1C[C@@H](c2ccccc2)Oc2cc(O[C@@H]3O[C@H](CO)[C@@H](O)[C@H](O)[C@H]3O)cc(O)c21`, the ED50 in series [1] is over 100 µM. Also, the viability at 24 h, up to 20 µM in series [2] is 74.5%. The 50% inhibitory concentration (IC50) in series [3] was 19.2 µM.

Consider `COc1cc([C@@H]2CC(=O)c3c(O)cc(O[C@@H]4O[C@H](CO)[C@@H](O)[C@H](O)[C@H]4O)cc3O2)ccc1O`, for which the ED50 in series [1] was found to be 100 µM. Moreover, in series [2], the viability at 24 h, up to 20 µM turned out to be 88.7%. Further, the concentration for half-maximal inhibition (IC50) in series [3] was 23.4 µM.

On to `COc1cc(CCCc2c(OC)cc(O)c(OC)c2OC)ccc1O[C@@H]1O[C@H](CO)[C@@H](O)[C@H](O)[C@H]1O`, for which the ED50 in series [1] is over 100 µM. Moreover, the viability at 24 h, up to 20 µM in series [2] came out at 77%. Further, in series [3], the half-inhibitory concentration (IC50) amounted to 30.2 µM.

As to `O=C1C[C@@H](c2ccc(O)c(O)c2)Oc2cc(O[C@@H]3O[C@H](CO)[C@@H](O)[C@H](O)[C@H]3O)cc(O)c21`, the ED50 in series [1] is 63.3 µM. Moreover, the viability at 24 h, up to 20 µM in series [2] came out at 100%. The half-inhibitory concentration (IC50) in series [3] was 41.2 µM.

In the case of `Cc1c(C)c2c(c(C)c1O)CC[C@@](C)(CCC[C@H](C)CCC[C@H](C)CCCC(C)C)O2`, the ED50 in series [1] amounted to 28.4 µM.

On to `O=C1C[C@@H](c2ccc(O)cc2)Oc2cc(O[C@@H]3O[C@H](CO)[C@@H](O)[C@H](O)[C@H]3O)cc(O)c21` [PRUNIN], for which the ED50 in series [1] was over 100 µM. Further, the viability at 24 h, up to 20 µM in series [2] amounted to 100%. In addition, the half-inhibitory concentration (IC50) in series [3] stood at 42.6 µM.

On to `O=c1c(O)c(-c2ccc(O)c(O)c2)oc2cc(O)cc(O)c12` [QUERCETIN], for which the viability at 24 h, up to 20 µM in series [2] came out at 100%. Also, in series [3], the IC50 worked out at 32.1 µM.

For the compound `O=C(/C=C/c1ccccc1)O[C@H]1[C@H](Oc2cc(O)c3c(c2)O[C@H](c2ccc(O)c(O)c2)CC3=O)O[C@H](CO)[C@@H](O)[C@@H]1O` [VISARTISIDE A], in series [1], the ED50 is 37.6 µM. The viability at 24 h, up to 20 µM in series [2] came out at 100%. Besides, the IC50 in series [3] came out at 15.6 µM.

With `O=C(/C=C/c1ccccc1)OC[C@H]1O[C@@H](Oc2cc(O)c3c(c2)O[C@H](c2ccc(O)c(O)c2)CC3=O)[C@H](O)[C@@H](O)[C@@H]1O` [VISARTISIDE B], the ED50 in series [1] was 34.1 µM. In addition, the viability at 24 h, up to 20 µM in series [2] is 100%. Moreover, the 50% inhibitory concentration (IC50) in series [3] worked out at 25.1 µM.

As to `O=C(/C=C/c1ccccc1)OC[C@@]1(O)CO[C@@H](O[C@H]2[C@H](Oc3cc(O)c4c(c3)O[C@H](c3ccc(O)c(O)c3)CC4=O)O[C@H](CO)[C@@H](O)[C@@H]2O)[C@@H]1O` [VISARTISIDE C], in series [1], the ED50 is over 100 µM. Also, in series [2], the viability at 24 h, up to 20 µM worked out at 99.7%. The IC50 in series [3] was 14.9 µM.

`O=C(/C=C/c1ccccc1)OC[C@@]1(O)CO[C@@H](O[C@@H]2[C@@H](O)[C@@H](O)O[C@H](CO)[C@H]2O)[C@@H]1O` [VISARTISIDE D]: the ED50 in series [1] was over 100 µM. The viability at 24 h, up to 20 µM in series [2] came out at 80.2%. The 50% inhibitory concentration (IC50) in series [3] amounted to 32.3 µM.

`O=C(/C=C/c1ccccc1)OC[C@@]1(O)CO[C@@H](O[C@@H]2[C@@H](O)[C@H](OCc3ccccc3)O[C@H](CO)[C@H]2O)[C@@H]1O` [VISARTISIDE E]: the ED50 in series [1] was over 100 µM. Also, the viability at 24 h, up to 20 µM in series [2] was 88.1%. Besides, in series [3], the IC50 was determined as 39.6 µM.

Take `COc1ccc(/C=C/CO[C@@H]2O[C@H](CO)[C@@H](O)[C@H](O[C@@H]3OC[C@](O)(COC(=O)/C=C/c4ccccc4)[C@H]3O)[C@H]2O)cc1O` [VISARTISIDE F]: in series [1], the ED50 is over 100 µM. Moreover, the viability at 24 h, up to 20 µM in series [2] amounted to 85.2%. Further, in series [3], the half-inhibitory concentration (IC50) came out at 27.8 µM.

For the origin of these results see ChEMBL document CHEMBL1154917, “Flavanone and diphenylpropane glycosides and glycosidic acyl esters from Viscum articulatum” (J Nat Prod, 2010).
